# Where two headings read alike, the source gives them in different places.
# How the values were obtained:
# [1] = test system: P. aeruginosa PA14 infection; assay: Galleria mellonella larvae (wax moth) infection assay; format: in vivo; details: monotherapy at sub-MIC (PRMSE 12.5 mg/mL, ciprofloxacin 0.03 μg/mL)
# Protocol: Each data set represents one experiment with five larvae per condition in triplicate, the experiment repeated twice (*P<0.05, Mantel-cox test, n=6).
# Briefly, PA14 culture grown overnight in TSB broth is diluted 1:100 in the same growth medium and further grown to OD600 nm of 1.27 at 37° C. under 100 rpm shaking. Freshly grown culture is centrifuged, and pellets are washed and resuspended in 10 mM MgSO4 to an OD600 of 0.1. To prepare the lethal dose of P. aeruginosa PA14 culture serial 10-fold dilutions are made in 10 mM MgSO4 supplemented with 1 mg/mL of ampicillin (adjusted to about 1-10^3 bacterial cells in 5 μL of suspension) containing or not containing PRMSE, without and with ciprofloxacin at sub-MICs. Ampicillin is used to prevent infection by bacterial contaminants on the surface of the larvae at a final concentration of approximately 5 ng per larva during survival phase. G. mellonella larvae are injected with 5 μL aliquot of each treatment solution using prewashed Hamilton syringe. Five larvae are injected per each treatment and the assay is performed in triplicate. PRMSE and ciprofloxacin at sub-MICs are assessed individually to monitor adverse effect on larvae survival. […] All injected larvae are incubated in Petri plates at 28° C. under the dark condition, and the number of dead larvae is scored daily after infection. […]
# P. aeruginosa PA14 [2] = assay: Checkerboard microdilution assay (growth inhibition synergy); format: cell-based, Pseudomonas aeruginosa
# Protocol: (§1) The checkerboard microdilution assay is used for evaluation of in vitro antimicrobial synergy between two compounds (i.e., antibiotic/PRMSE, antibiotic/pure phenolic compound, and pure phenolic compounds with each other). Two-fold serial dilutions are prepared in MHB-II for each of the two compounds under study. The serial dilutions are then loaded into 96 well plates to achieve combinations having different concentrations of each of the two compounds. Each well is subsequently inoculated with 10^6 CFU mL^−1 of the desired bacterial strain and incubated at 37° C. for 18 h under static conditions. The Fractional Inhibitory Concentration Index (FICI) for each combination is calculated by using the following formula: FICcomponent 1=MICcomponent 1, in combination/MICcomponent 1,alone FICI=FICcomponent 1+FICcomponent 2
# (§2) The FICIs are interpreted as follows: FICI of […] (synergy); 0.5<FICI ≤1 (no interaction/indifference); FICI of >4 (antagonism).
# P. aeruginosa PAO1 [3] = assay: as above; format: cell-based, Pseudomonas aeruginosa
# Protocol: as §1, §2
# P. mirabilis HI4320 [4] = assay: as above; format: cell-based, Proteus mirabilis
# Protocol: as §1, §2
# P. aeruginosa PA14 [5] = assay: Determination of minimum inhibitory concentration (MIC); format: cell-based; details: Pseudomonas aeruginosa
# Protocol: (§3) A range of concentration of antibiotics, ciprofloxacin (0.0003-0.25 μg mL^−1) and carbenicillin (0.5-512 μg mL^−1), are chosen due to their known potency against all four bacterial strains. Dilutions are prepared in flat bottom, 96 well microtitre plates (Falcon™, Corning™, Fisher Scientific, ON, Canada). Each well of a microtitre plate is then inoculated with the desired bacterial strain (grown in MHB-II and diluted to […]) and the plate is incubated at 37° C. for 18 h under static conditions. Bacterial growth is assessed by (i) monitoring the optical density of the cell suspension in each well at 600 nm (OD600 nm), and (ii) the resazurin microtitre plate assay. In the resazurin microtitre plate assay, each well of a microtitre plate is supplemented with 20 μM resazurin, incubated in the dark for 20 min at room temperature, followed by fluorescence measurements at ex/em 570/590 nm using a TECAN Infinite M200 Pro microplate reader (Tecan Group Ltd., Switzerland). The lowest concentration of a compound able to prevent increase in OD600 nm and resazurin fluorescence intensity is recorded as the MIC for that compound.
# E. coli CFT073 [6] = assay: as above; format: cell-based; details: Escherichia coli
# Protocol: as §3
# P. mirabilis HI4320 [7] = assay: as above; format: cell-based; details: Proteus mirabilis
# Protocol: as §3
# P. aeruginosa PAO1 [8] = assay: as above; format: cell-based; details: Pseudomonas aeruginosa
# Protocol: as §3
# P. aeruginosa PA14 lawn = assay: In vitro analysis of hemolymph recovered from treated G. mellonella larvae; design: species or system Galleria mellonella; details: hemolymph recovered 3 h post-injection, spotted on PA14 lawn, 24 h at 37° C.
# Protocol: Larvae were injected with PRMSE (mg/mL) or Cip (μg/mL) alone and in combination, and hemolymph recovered 3 h after treatment were spotted on Pseudomonas isolation agar plates previously inoculated with PA14 cells to produce a lawn of confluent growth. The plate was observed after 24 h of incubation at 37° C. The experiment was performed with three larvae per each condition in triplicate. S-control: saline control.
# To rule out any growth-inhibitory effect of PRMSE on PA14 cells due to induction of the immune response, production of antimicrobial peptides or transformation of the extract into a toxic compound(s) in the larval hemolymph, an additional set of larvae are injected with 5 μL of PRMSE without and with ciprofloxacin (sub-MICs) or saline solution as a control. The larval hemolymph is recovered at 3 h after the treatment and 5 μL aliquot of each larval hemolymph sample is spotted on the Pseudomonas isolation agar (BD-Difco) plates previously inoculated with PA14 cells to produce a lawn of confluent growth. The appearance of growth inhibition halos is verified after 24 h of incubation at 37° C.
# [9] = test system: P. aeruginosa PA14 infection; assay: Drosophila melanogaster (fruit fly) feeding infection assay; format: in vivo; details: monotherapy at sub-MIC (PRMSE 6.25 mg mL^−1, ciprofloxacin 0.015 μg mL^−1)
# Protocol: Mortality was scored daily for 14 days. […] Results represent measurements from experiments performed with duplicates, twice (*p<0.01, Log-rank Mantel-cox test).
# In this infection assay, PRMSE was analyzed for its anti-infective activity. As well, antibiotic ciprofloxacin is analyzed in combination with PRMSE for its synergistic anti-infective interactions. Fruit flies (D. melanogaster) are infected orally in fly feeding assay as before (Lutter et al., 2008, Infect Immun., 76: 1877-1888), with some modifications. Briefly, flies are anesthetized under a gentle stream of carbon dioxide. Male flies (3- to 5-days-old) are starved of food and water for 5-6 h and separated into vials (10 per vial) containing 5 ml of 5% sucrose agar (sterile) without and with phenolic extract without and with antibiotic at sub-MICs and 2.3-cm filter paper disks (sterile) containing freshly grown bacterial culture suspension. To achieve this freshly grown culture, an overnight P. aeruginosa PA14 culture is inoculated in 6 mL TSB culture and incubated at 37° C. and 100 rpm until OD600=3.0. This culture is centrifuged at 12,000×g for 1 min and the resulting pellet resuspended in 150 μL of sterile 5% sucrose, without and with sub-MICs of phenolic extract or antibiotic. […] Post-infection mortality of flies is monitored daily for 14 days, with each treatment tested twice in duplicate.
# G. mellonella larvae = G. mellonella larvae survival after injection of extract or antibiotic alone; format: in vivo, Galleria mellonella; details: injected alone; PRMSE 12.5 mg/mL, ciprofloxacin 0.03 μg/mL; within 72 h
# Protocol: Each data set is representative of experiments with five larvae per condition in triplicate.
# G. mellonella infection assay is performed as described previously with some modification (Jander et al., 2000, J Bacteriol., 182: 3843-3845). Briefly, PA14 culture grown overnight in TSB broth is diluted 1:100 in the same growth medium and further grown to OD600 nm of 1.27 at 37° C. under 100 rpm shaking. Freshly grown culture is centrifuged, and pellets are washed and resuspended in 10 mM MgSO4 to an OD600 of 0.1. […] Ampicillin is used to prevent infection by bacterial contaminants on the surface of the larvae at a final concentration of approximately 5 ng per larva during survival phase. G. mellonella larvae are injected with 5 μL aliquot of each treatment solution using prewashed Hamilton syringe. Five larvae are injected per each treatment and the assay is performed in triplicate. […] All injected larvae are incubated in Petri plates at 28° C. under the dark condition, and the number of dead larvae is scored daily after infection. […] A mock inoculation using prewashed Hamilton syringe is also performed in each experiment to monitor the killing due to physical injury or infection by pathogenic contaminants. […]
# P. aeruginosa PA14 [10] = assay: Survival of PA14 on sucrose filters during fly feeding assay; format: cell-based, Pseudomonas aeruginosa; details: PRMSE 6.25 mg mL-1, ciprofloxacin 0.015 μg mL-1, mono- and combination; six days
# Protocol: Total viable bacterial counts per filter were determined every second day for filters containing bacterial cells on sucrose agar. PA14 cells on filter were untreated or treated with PRMSE (6.25 mg mL-1) or ciprofloxacin (0.015 μg mL-1) alone and in combination. Average data represent data from experiment performed in triplicate and error bars represent S.D.
# To address this possibility, the survival of PA14 on the paper discs without and with sub-MICs of PRMSE or antibiotic under the same conditions as the fly feeding assay is analyzed. Enumeration of viable bacteria on filters during the infection period is performed using separate test vials with different treatments inoculated with P. aeruginosa PA14 and inoculated control sucrose vials that are sampled on alternative days, up to 6 days during infection period. Briefly, filters from the test vials are removed in a sterile environment, placed in 50 mL polypropylene tube containing 5 mL of LB broth and vortexed for 30 s. This LB medium containing the sampled bacterial cells is serially diluted in phosphate buffer saline solution (pH 7.4), and 30 μL is plated onto Pseudomonas isolation agar (BD-Difco). Colonies are enumerated after the incubation at 37° C. for 24 h.
# E. coli CFT073 [11] = assay: Checkerboard microdilution assay (growth inhibition synergy); format: cell-based, Escherichia coli
# Protocol: as §1, §2
# D. melanogaster flies = assay: D. melanogaster survival when fed extract or antibiotic individually; format: in vivo, Drosophila melanogaster; details: PRMSE 6.25 mg/mL, ciprofloxacin 0.015 μg/mL, within 264 h
# Protocol: As well, antibiotic ciprofloxacin is analyzed in combination with PRMSE for its synergistic anti-infective interactions. Fruit flies (D. melanogaster) are infected orally in fly feeding assay as before (Lutter et al., 2008, Infect Immun., 76: 1877-1888), with some modifications. Briefly, flies are anesthetized under a gentle stream of carbon dioxide. Male flies (3- to 5-days-old) are starved of food and water for 5-6 h and separated into vials (10 per vial) containing 5 ml of 5% sucrose agar (sterile) without and with phenolic extract without and with antibiotic at sub-MICs and 2.3-cm filter paper disks (sterile) containing freshly grown bacterial culture suspension. To achieve this freshly grown culture, an overnight P. aeruginosa PA14 culture is inoculated in 6 mL TSB culture and incubated at 37° C. and 100 rpm until OD600=3.0. This culture is centrifuged at 12,000×g for 1 min and the resulting pellet resuspended in 150 μL of sterile 5% sucrose, without and with sub-MICs of phenolic extract or antibiotic. […] Post-infection mortality of flies is monitored daily for 14 days, with each treatment tested twice in duplicate.
# [12] = test system: E. coli CFT073, P. mirabilis HI4320, P. aeruginosa PAO1 and PA14; assay: Checkerboard microdilution assay, summary over the four strains; format: cell-based; details: labelled constituent + gallic acid; range over the four strains
# Protocol: as §1, §2
# [13] = ciprofloxacin/PRMSE combination, FIC of the labelled component
# [14] = ciprofloxacin in combination with the labelled phenolic constituent
# [15] = labelled constituent + catechaldehyde, * = synergistic
# [16] = labelled constituent + catechol, * = synergistic
# [17] = labelled constituent + gallic acid, * = synergistic
# [18] = labelled constituent combined with catechaldehyde
# [19] = labelled constituent combined with catechol
# [20] = labelled constituent combined with gallic acid
# [21] = labelled phenolic constituent + ciprofloxacin, * = synergistic interaction
# [22] = labelled phenolic constituent in combination with ciprofloxacin
compound,measurement,setting,value
"O=C(O)c1cn(C2CC2)c2cc(N3CCNCC3)c(F)cc2c1=O [ciprofloxacin, reference compound]",protection of G. mellonella larvae against PA14 infection,[1],fails to protect
same,FIC (Fractional Inhibitory Concentration),P. aeruginosa PA14 [2]; [13],0.03
same,FIC (Fractional Inhibitory Concentration),P. aeruginosa PAO1 [3]; [13],0.03
same,FIC (Fractional Inhibitory Concentration),P. mirabilis HI4320 [4]; [13],0.02
same,MIC,"P. aeruginosa PA14 [5]; PA14, antibiotic alone, MHB-II, 37° C., 18 h, read-out: MIC",0.06 µg/mL
same,MIC,"E. coli CFT073 [6]; CFT073, antibiotic alone, MHB-II, 37° C., 18 h, read-out: MIC",0.008 µg/mL
same,MIC,"P. mirabilis HI4320 [7]; HI4320, antibiotic alone, MHB-II, 37° C., 18 h, read-out: MIC",0.016 µg/mL
same,MIC,"P. aeruginosa PAO1 [8]; PAO1, antibiotic alone, MHB-II, 37° C., 18 h, read-out: MIC",1 µg/mL
same,effect of recovered larval hemolymph on PA14 growth in vitro,P. aeruginosa PA14 lawn,no effect
same,protection of D. melanogaster against PA14 infection,[9],fails to protect
same,killing effect on G. mellonella larvae,G. mellonella larvae,no killing effect
same,culturability of PA14 cells on filter paper discs,P. aeruginosa PA14 [10],no significant difference
same,FIC (Fractional Inhibitory Concentration),E. coli CFT073 [11]; [13],0.25
same,killing effect on D. melanogaster flies,D. melanogaster flies,no killing effect
COc1cc(C=O)cc(OC)c1O [syringaldehyde],FIC of ciprofloxacin,P. aeruginosa PA14 [2]; [14],0.5
same,"FICI, catechaldehyde",P. aeruginosa PA14 [2]; [15],1
same,"FICI, catechol",P. aeruginosa PA14 [2]; [16],1
same,"FICI, gallic acid",P. aeruginosa PA14 [2]; [17],0.63
same,"FIC, catechaldehyde",P. aeruginosa PA14 [2]; [18],0.5
same,"FIC, catechol",P. aeruginosa PA14 [2]; [19],0.5
same,"FIC, gallic acid",P. aeruginosa PA14 [2]; [20],0.13
same,FICI,P. aeruginosa PA14 [2]; [21],0.75
same,FIC of compound,P. aeruginosa PA14 [2]; [22],0.25
same,FIC of ciprofloxacin,P. aeruginosa PAO1 [3]; [14],1
same,"FICI, catechaldehyde",P. aeruginosa PAO1 [3]; [15],0.5*
same,"FICI, catechol",P. aeruginosa PAO1 [3]; [16],0.5*
same,"FICI, gallic acid",P. aeruginosa PAO1 [3]; [17],1
same,"FIC, catechaldehyde",P. aeruginosa PAO1 [3]; [18],0.25
same,"FIC, catechol",P. aeruginosa PAO1 [3]; [19],0.25
same,"FIC, gallic acid",P. aeruginosa PAO1 [3]; [20],0.5
same,FICI,P. aeruginosa PAO1 [3]; [21],2
same,FIC of compound,P. aeruginosa PAO1 [3]; [22],1
same,FIC of ciprofloxacin,P. mirabilis HI4320 [4]; [14],0.5
same,"FICI, catechaldehyde",P. mirabilis HI4320 [4]; [15],0.75
same,"FICI, catechol",P. mirabilis HI4320 [4]; [16],0.75
same,"FICI, gallic acid",P. mirabilis HI4320 [4]; [17],1
same,"FIC, catechaldehyde",P. mirabilis HI4320 [4]; [18],0.25
same,"FIC, catechol",P. mirabilis HI4320 [4]; [19],0.25
same,"FIC, gallic acid",P. mirabilis HI4320 [4]; [20],0.5
same,FICI,P. mirabilis HI4320 [4]; [21],1
same,FIC of compound,P. mirabilis HI4320 [4]; [22],0.5
same,MIC,"P. aeruginosa PA14 [5]; PA14, 18 h",5000 µg/mL
same,MIC,"E. coli CFT073 [6]; CFT073, 18 h",5000 µg/mL
same,MIC,"P. mirabilis HI4320 [7]; HI4320, 18 h",5000 µg/mL
same,MIC,"P. aeruginosa PAO1 [8]; PAO1, 18 h",5000 µg/mL
same,FICIs of pairs with gallic acid,[12],0.63-1.0
same,FIC of ciprofloxacin,E. coli CFT073 [11]; [14],0.5
same,"FICI, catechaldehyde",E. coli CFT073 [11]; [15],0.31*
same,"FICI, catechol",E. coli CFT073 [11]; [16],0.31*
same,"FICI, gallic acid",E. coli CFT073 [11]; [17],0.75
same,"FIC, catechaldehyde",E. coli CFT073 [11]; [18],0.25
same,"FIC, catechol",E. coli CFT073 [11]; [19],0.25
same,"FIC, gallic acid",E. coli CFT073 [11]; [20],0.5
same,FICI,E. coli CFT073 [11]; [21],0.75
same,FIC of compound,E. coli CFT073 [11]; [22],0.25

# Source: patent US10206906B2, “Synergistic combination of a phenolic-rich maple syrup extract and an antibiotic” (priority 2015, dated 2019)
